Assay: xn = mol fraction of the nth substance listed
Settings: 101 kPa, Liquid; for speed of sound: Sing-around technique in a fixed-path interferometer; for mass density: Vibrating tube method; for viscosity: Capillary tube (Ostwald / Ubbelohde) method

CCCCCCCCO [octan-1-ol] + CC(C)CCCC(C)CCCC(C)CCCCC(C)CCCC(C)CCCC(C)C
x1 = 1
Settings | mass density [kg/m3] | speed of sound [m/s] | viscosity [mPa·s]
293.15 K | 821.813 | 1348 | –
298.15 K | – | – | 7.506
303.15 K | 818.796 | 1330.8 | 6.344
308.15 K | 815.286 | 1314.1 | 5.363

CC(C)CCCC(C)CCCC(C)CCCCC(C)CCCC(C)CCCC(C)C (centres undefined) [2,6,10,15,19,23-hexamethyltetracosane] + CCCCCCCCO
Settings | mass density, 293.15 K [kg/m3] | mass density, 303.15 K [kg/m3] | mass density, 308.15 K [kg/m3] | speed of sound, 293.15 K [m/s] | speed of sound, 303.15 K [m/s] | speed of sound, 308.15 K [m/s] | viscosity, 298.15 K [mPa·s] | viscosity, 303.15 K [mPa·s] | viscosity, 308.15 K [mPa·s]
x2 = 0 | 805.122 | 801.912 | 798.709 | 1381.9 | 1364.1 | 1346.5 | 28.26 | 22.09 | 17.77
x2 = 0.0596 | 805.175 | 801.944 | 798.711 | 1379.9 | 1362.1 | 1344.1 | 24.18 | 19.21 | 15.49
x2 = 0.1053 | 805.299 | 802.053 | 798.798 | 1378.5 | 1360.4 | 1343.1 | 21.92 | 17.59 | 14.21
x2 = 0.1563 | 805.499 | 802.234 | 798.947 | 1376.9 | 1359.3 | 1341.5 | 20.12 | 16.25 | 13.14
x2 = 0.2092 | 805.773 | 802.479 | 799.184 | 1375.7 | 1357.8 | 1340.2 | 18.81 | 15.26 | 12.34
x2 = 0.2648 | 806.107 | 802.799 | 799.487 | 1374.2 | 1356.4 | 1338.7 | 17.88 | 14.5 | 11.73
x2 = 0.3404 | 806.637 | 803.312 | 799.989 | 1372.4 | 1354.5 | 1336.8 | 16.97 | 13.74 | 11.13
x2 = 0.398 | 807.105 | 803.775 | 800.439 | 1370.8 | 1352.9 | 1335.3 | 16.38 | 13.24 | 10.72
x2 = 0.4799 | 807.875 | 804.507 | 801.188 | 1368.6 | 1350.7 | 1333.1 | 15.42 | 12.45 | 10.12
x2 = 0.5974 | 809.279 | 805.92 | 802.536 | 1364.9 | 1347.1 | 1329.5 | 13.55 | 11.01 | 9.007
x2 = 0.6988 | 810.937 | 807.538 | 804.116 | 1361.3 | 1343.7 | 1326.1 | 11.51 | 9.441 | 7.786
x2 = 0.8079 | 813.477 | 810.008 | 806.567 | 1356.9 | 1339.5 | 1322.1 | 9.294 | 7.693 | 6.416
x2 = 0.8519 | 814.812 | 811.352 | 807.925 | 1355.2 | 1337.8 | 1320.4 | 8.533 | 7.093 | 5.937
x2 = 0.8942 | 816.384 | 812.92 | 809.463 | 1353.2 | 1335.9 | 1318.7 | 7.963 | 6.624 | 5.572
x2 = 0.9474 | 818.773 | 815.429 | 811.955 | 1350.6 | 1333.5 | 1316.4 | 7.526 | 6.288 | 5.31
